Laboratory results reported in patent US7834030B2, “Phenyl-[1,2,4]-oxadiazol-5-one derivatives, pharmaceutical compositions and therapeutic use thereof” (Sanofi-Aventis, priority 2005, dated 2010).

Target: T1, human PPARalpha (Homo sapiens, UniProt Q07869)
T1 construct: human PPARalpha receptor (amino acids S167-Y468); expressed in transfected cells; plasmid pcDNA3
T1 sequence (Q07869 167-468): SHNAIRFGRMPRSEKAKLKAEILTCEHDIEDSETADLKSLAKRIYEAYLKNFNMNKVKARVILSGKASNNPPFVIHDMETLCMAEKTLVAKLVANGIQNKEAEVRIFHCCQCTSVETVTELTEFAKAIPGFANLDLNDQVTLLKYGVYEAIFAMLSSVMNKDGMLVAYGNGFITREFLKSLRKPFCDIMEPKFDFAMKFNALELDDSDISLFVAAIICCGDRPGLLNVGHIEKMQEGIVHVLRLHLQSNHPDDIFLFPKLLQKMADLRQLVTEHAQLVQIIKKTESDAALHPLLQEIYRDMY
Test: cellular PPARalpha assay (GAL4 luciferase reporter, stably transfected HEK cell line)
Format: cell-based
Protocol: The activity of the compounds was tested through the determination of EC50 values of PPAR agonists in the cellular PPARalpha assay. The potency of substances which bind to human PPARalpha and activate it in an agonistic manner was analyzed using a stably transfected HEK cell line (HEK=human embryo kidney) which is referred to here as PPARalpha reporter cell line. It contains two genetic elements, a luciferase reporter element (pdeltaM-GAL4-Luc-Zeo) and a PPARalpha fusion protein (GR-GAL4-humanPPARalpha-LBD) which mediates expression of the luciferase reporter element depending on a PPARalpha ligand. The stably and constitutively expressed fusion protein GR-GAL4-humanPPARalpha-LBD binds in the cell nucleus of the PPARalpha reporter cell line via the GAL4 protein portion to the GAL4 DNA binding motifs 5′-upstream of the luciferase reporter element which is stably integrated in the genome of the cell line. There is only weak expression of the luciferase reporter gene in the absence of a PPARalpha ligand if fatty acid-depleted fetal calf serum (cs-FCS) is used in the assay. PPARalpha ligands bind and activate the PPARalpha fusion protein and thereby stimulate the expression of the luciferase reporter gene. The luciferase which is formed can be detected by means of chemiluminescence via an appropriate substrate.
The PPARalpha reporter cell line was prepared in two stages. Firstly, the luciferase reporter element was constructed and stably transfected into HEK cells. For this purpose, five binding sites of the yeast transcription factor GAL4 (Accession # AF264724) were cloned in 5′-upstream of a 68 bp-long minimal MMTV promoter (Accession # V01175). The minimal MMTV promoter section contains a CCAAT box and a TATA element in order to enable efficient transcription by RNA polymerase II. The cloning and sequencing of the GAL4-MMTV construct took place in analogy to the description of Sambrook J. et. al. (Molecular cloning, Cold Spring Harbor Laboratory Press, 1989). Then the complete Photinus pyralis gene (Accession # M15077) was cloned in 3′-downstream of the GAL4-MMTV element. After sequencing, the luciferase reporter element consisting of five GAL4 binding sites, MMTV promoter and luciferase gene was recloned into a plasmid which confers zeocin resistance in order to obtain the plasmid pdeltaM-GAL4-Luc-Zeo. This vector was transfected into HEK cells in accordance with the statements in Ausubel, F. M. et al. (Current protocols in molecular biology, Vol. 1-3, John Wiley & Sons, Inc., 1995).
In a second step, the PPARalpha fusion protein (GR-GAL4-humanPPARalpha-LBD was introduced into the stable cell clone described. For this purpose, initially the cDNA coding for the N-terminal 76 amino acids of the glucocorticoid receptor (Accession # P04150) was linked to the cDNA section coding for amino acids 1-147 of the yeast transcription factor GAL4 (Accession # P04386). The cDNA of the ligand-binding domain of the human PPARalpha receptor (amino acids S167-Y468; Accession # S74349) was cloned in at the 3′-end of this GR-GAL4 construct. The fusion construct prepared in this way (GR-GAL4-humanPPARalpha-LBD) was recloned into the plasmid pcDNA3 (Invitrogen) in order to enable constitutive expression therein by the cytomegalovirus promoter. This plasmid was linearized with a restriction endonuclease and stably transfected into the previously described cell clone containing the luciferase reporter element. The finished PPARalpha reporter cell line which contains a luciferase reporter element and constitutively expresses the PPARalpha fusion protein (GR-GAL4-human PPARalpha-LBD) was isolated by selection with zeocin (0.5 mg/ml) and G418 (0.5 mg/ml).
The activity of PPARalpha agonists was determined in a 3-day assay, which is described below: […]

Row | EC50 [nM] | Compound
1 | 87 | CCC(Oc1ccc(-c2noc(=O)[nH]2)c(OCC(F)(F)F)c1)c1sc(-c2ccc(C(F)(F)F)cc2)nc1C (racemic) [Example 48, 3-[4-{1-[4-Methyl-2-(4-trifluoromethyl-phenyl)-thiazol-5-yl]-propoxy}-2-(2,2,2-trifluoro-ethoxy)-phenyl]-4H-1,2,4-oxadiazol-5-one]
2 | 1230 | CC[C@@H](Oc1ccc(-c2noc(=O)[nH]2)c(OC(F)F)c1)c1sc(-c2ccc(C(F)(F)F)cc2)nc1CN1CCC(C(F)(F)F)CC1 [(+)-45, (+)-3-(2-Difluoromethoxy-4-{(R)-1-[2-(4-trifluoromethyl-phenyl)-4-(4-trifluoromethyl-piperidin-1-ylmethyl)-thiazol-5-yl]-propoxy}-phenyl)-4H-1,2,4-oxadiazol-5-one]
3 | 1070 | CCCCC(Cc1ccc(-c2noc(=O)[nH]2)c(F)c1)c1sc(-c2ccc(C(F)(F)F)cc2)nc1C (racemic) [Example 34, 3-(2-Fluoro-4-{2-[4-methyl-2-(4-trifluoromethyl-phenyl)-thiazol-5-yl]-hexyl}-phenyl)-4H-[1,2,4]oxadiazol-5-one]
4 | 1210 | Cc1nc(-c2ccc(C(F)(F)F)cc2)sc1C(OCc1ccc(-c2noc(=O)[nH]2)c(Cl)n1)C(F)(F)F (racemic) [Example 27, 3-(2-Chloro-6-{2,2,2-trifluoro-1-[4-methyl-2-(4-trifluoromethyl-phenyl)-thiazol-5-yl]-ethoxymethyl}-pyridin-3-yl)-4H-[1,2,4]oxadiazol-5-one]
5 | 223 | CCC(Oc1ccc(-c2noc(=O)[nH]2)c(OC(F)F)c1)c1sc(-c2ccc(C(F)(F)F)cc2)nc1C (racemic) [Example 37, 3-(2-Difluoromethoxy-4-{1-[4-methyl-2-(4-trifluoromethyl-phenyl)-thiazol-5-yl]-propoxy}-phenyl)-4H-1,2,4-oxadiazol-5-one]
6 | 4380 | Cc1nc(-c2ccc(C(F)(F)F)cc2)sc1C(Cc1ccccn1)Oc1ccc(-c2noc(=O)[nH]2)c(Cl)c1 (racemic) [Example 10, 3-(2-Chloro-4-{1-[4-methyl-2-(4-trifluoromethyl-phenyl)-thiazol-5-yl]-2-pyridin-2-yl-ethoxy}-phenyl)-4H-[1,2,4]oxadiazol-5-one]
7 | > 33000 | CCC(Oc1ccc(-c2noc(=O)[nH]2)c(OC)c1)c1sc(-c2ccc(C(F)(F)F)cc2)nc1CN1CCC(C(F)(F)F)CC1 (racemic) [Example 42, 3-(2-Methoxy-4-{1-[2-(4-trifluoromethyl-phenyl)-4-(4-trifluoromethyl-piperidin-1-ylmethyl)-thiazol-5-yl]-propoxy}-phenyl)-4H-1,2,4-oxadiazol-5-one]
8 | 12 | CCC(Oc1ccc(-c2noc(=O)[nH]2)c(Cl)c1)c1sc(-c2ccc(C(F)(F)F)cc2)nc1C (racemic) [Example 4, 3-(2-Chloro-4-{1-[4-methyl-2-(4-trifluoromethyl-phenyl)-thiazol-5-yl]-propoxy}-phenyl)-4H-[1,2,4]oxadiazol-5-one]
9 | 2640 | Cc1nc(-c2ccc(C(F)(F)F)cc2)sc1C(OCc1ccc(-c2noc(=O)[nH]2)c(F)c1)C(F)(F)F (racemic) [Example 22, 3-(2-Fluoro-4-{2,2,2-trifluoro-1-[4-methyl-2-(4-trifluoromethyl-phenyl)-thiazol-5-yl]-ethoxymethyl}-phenyl)-4H-[1,2,4]oxadiazol-5-one]
10 | 117 | CCC(Oc1ccc(-c2noc(=O)[nH]2)c(C2CC2)c1)c1sc(-c2ccc(C(F)(F)F)cc2)nc1C (racemic) [Example 16, 3-(2-Cyclopropyl-4-{1-[4-methyl-2-(4-trifluoromethyl-Phenyl)-thiazol-5-yl]-propoxy}-phenyl)-4H-[1,2,4]oxadiazol-5-one]
11 | 269 | CCC(Oc1ccc(-c2noc(=O)[nH]2)c(F)c1)c1sc(-c2ccc(C(F)(F)F)cc2)nc1C (racemic) [Example 35, 3-(2-Fluoro-4-{1-[4-methyl-2-(4-trifluoromethyl-phenyl)-thiazol-5-yl]-propoxy}-phenyl)-4H-1,2,4-oxadiazol-5-one]
12 | 307 | Cc1nc(-c2ccc(C(F)(F)F)cc2)sc1C(Oc1ccc(-c2noc(=O)[nH]2)c(Cl)c1)C(F)(F)F (racemic) [Example 20, 3-(2-Chloro-4-{2,2,2-trifluoro-1-[4-methyl-2-(4-trifluoromethyl-phenyl)-thiazol-5-yl]-ethoxy}-phenyl)-4H-[1,2,4]oxadiazol-5-one]
13 | > 33000 | Cc1nc(-c2ccc(C(F)(F)F)cc2)sc1C(OCc1ccc(-c2noc(=O)[nH]2)cc1)C(F)(F)C1CC1 (racemic) [Example 32, 3-(4-{2-Cyclopropyl-2,2-difluoro-1-[4-methyl-2-(4-trifluoromethyl-phenyl)-thiazol-5-yl]-ethoxymethyl}-phenyl)-4H-[1,2,4]oxadiazol-5-one]
14 | 677 | CC[C@@H](Oc1cc(OC)c(-c2noc(=O)[nH]2)cc1F)c1sc(-c2ccc(C(F)(F)F)cc2)nc1C [(+)-40, (+)-3-(5-Fluoro-2-methoxy-4-{(R)-1-[4-methyl-2-(4-trifluoromethyl-phenyl)-thiazol-5-yl]-propoxy}-phenyl)-4H-1,2,4-oxadiazol-5-one]
15 | 544 | Cc1nc(-c2ccc(C(F)(F)F)cc2)sc1C(OCc1ccc(-c2noc(=O)[nH]2)c2cccnc12)C(F)(F)F (racemic) [Example 25, 3-(8-{2,2,2-Trifluoro-1-[4-methyl-2-(4-trifluoromethyl-phenyl)-thiazol-5-yl]-ethoxymethyl}-quinolin-5-yl)-4H-[1,2,4]oxadiazol-5-one]
